Values joined by “and” are separate entries in the source; they are usually repeats but may differ in a detail not shown here. Identical values can stand only once.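 How tested: cells in 96-well plates exposed to compound for 48 hours at five concentrations. GI50: concentration for 50% inhibition of growth. TGI: concentration producing complete growth inhibition.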
Columns and labels:
Test in all cases: growth of human tumour cells (NCI), 48 h
[1] = system: RPMI-8226 leukemia
[2] = system: SF-268 CNS
[3] = system: K-562 leukemia
[4] = system: HL-60(TB) leukemia
[5] = system: MALME-3M melanoma
[6] = system: MCF7 breast
[7] = system: MDA-MB-231 breast
[8] = system: SNB-75 CNS
[9] = system: M14 melanoma
[10] = system: OVCAR-5 ovarian
[11] = system: HCT-15 colon
[12] = system: CCRF-CEM leukemia
[13] = system: UACC-257 melanoma
[14] = system: HS 578T breast
[15] = system: NCI-H522 lung
[16] = system: COLO 205 colon
[17] = system: SK-MEL-5 melanoma
[18] = system: NCI-H226 lung
[19] = system: HT29 colon
[20] = system: PC-3 prostate
[21] = system: SK-OV-3 ovarian
[22] = system: LOX IMVI melanoma
[23] = system: BT-549 breast
[24] = system: NCI-H460 lung
[25] = system: SW-620 colon
[26] = system: U251 CNS
[27] = system: HCT-116 colon
[28] = system: EKVX NSCLC
[29] = system: TK-10 renal
[30] = system: T-47D breast
[31] = system: OVCAR-4 ovarian
[32] = system: SR leukemia
[33] = system: SK-MEL-28 melanoma
[34] = system: MOLT-4 leukemia
[35] = system: SF-295 CNS
[36] = system: SF-539 CNS
[37] = system: SN12C renal
[38] = system: A549 NSCLC
[39] = system: OVCAR-3 ovarian
[40] = system: UACC-62 melanoma
[41] = system: HCC-2998 colon
[42] = system: UO-31 renal
[43] = system: ACHN renal
[44] = system: OVCAR-8 ovarian
[45] = system: KM12 colon
[46] = system: SNB-19 CNS
[47] = system: MDA-MB-435
[48] = system: 786-0 renal
[49] = system: DU-145 prostate
[50] = system: SK-MEL-2 melanoma
[51] = system: HOP-92 NSCLC
[52] = system: NCI/ADR-RES ovarian
[53] = system: A498 renal
[54] = system: HOP-62 NSCLC
[55] = system: IGROV1 ovarian
[56] = system: NCI-H23 lung

Question: What does the source list for CCOC(=O)C(Cc1c[nH]c2ccc(N(CCCl)CCCl)cc12)(NC(C)=O)C(=O)OCC?
Answer: GI50 [1]: 6.41 µM; TGI [1]: 33.4 µM; GI50 [2]: 5.21 µM; TGI [2]: 46.5 µM; GI50 [3]: 22.7 µM and 12.2 µM; TGI [3]: 57.5 µM and 47.2 µM; GI50 [4]: 3.29 µM and 1.43 µM; TGI [4]: 12.1 µM and 9.89 µM; GI50 [5]: 11.1 µM; TGI [5]: 28.3 µM; GI50 [6]: 2.42 µM and 3.11 µM; TGI [6]: 26.8 µM and 96.6 µM; GI50 [7]: 24.6 µM and 33.3 µM; TGI [7]: 81.2 µM and 575 µM; GI50 [8]: 11.5 µM and 6.53 µM; TGI [8]: 67.9 µM and 57 µM; GI50 [9]: 12.3 µM; TGI [9]: 116 µM; GI50 [10]: 30.8 µM and 25.2 µM; TGI [10]: 67 µM and 75.7 µM; GI50 [11]: 14.6 µM and 16.1 µM; TGI [11]: 39.9 µM and 53.4 µM; GI50 [12]: 1.33 µM and 1.47 µM; TGI [12]: 5.21 µM and 19.9 µM; GI50 [13]: 17.6 µM and 23.9 µM; TGI [13]: 52.6 µM and 94 µM; GI50 [14]: 69.5 µM and 20.9 µM; TGI [14]: 68.3 µM; GI50 [15]: 0.17 µM; TGI [15]: 1.93 µM; GI50 [16]: 12.2 µM and 15.3 µM; TGI [16]: 30.4 µM and 44.2 µM; GI50 [17]: 7.34 µM and 24.5 µM; TGI [17]: 25.5 µM and 137 µM; GI50 [18]: 14.1 µM and 19.4 µM; TGI [18]: 41.4 µM and 67.9 µM; GI50 [19]: 16.9 µM and 13.9 µM; TGI [19]: 77.4 µM; GI50 [20]: 3.84 µM and 18.5 µM; TGI [20]: 48.1 µM and 332 µM; GI50 [21]: 22.6 µM and 17.5 µM; TGI [21]: 99.4 µM and 131 µM; GI50 [22]: 7.09 µM and 4.88 µM; TGI [22]: 24.6 µM and 35.3 µM; GI50 [23]: 16.3 µM and 12.2 µM; TGI [23]: 39.3 µM and 50.2 µM; GI50 [24]: 1.82 µM and 0.765 µM; TGI [24]: 17.7 µM and 132 µM; GI50 [25]: 8.78 µM and 13.2 µM; TGI [25]: 93.6 µM and 46.8 µM; GI50 [26]: 10.6 µM and 7.88 µM; TGI [26]: 35.4 µM and 35.3 µM; GI50 [27]: 11.7 µM and 10.9 µM; TGI [27]: 31.3 µM and 37.9 µM; GI50 [28]: 52.2 µM and 38.7 µM; TGI [28]: 403 µM; GI50 [29]: 22.2 µM and 17.6 µM; TGI [29]: 60.5 µM and 62.7 µM; GI50 [30]: 9.31 µM and 6.59 µM; TGI [30]: 51.9 µM and > 71.8 µM; GI50 [31]: 53 µM and 47.8 µM; TGI [31]: 682 µM; GI50 [32]: 1.86 µM; TGI [32]: 7.14 µM; GI50 [33]: 31.6 µM and 23 µM; TGI [33]: 238 µM; GI50 [34]: 2.88 µM and 0.957 µM; TGI [34]: 13 µM and 26.2 µM; GI50 [35]: 5.41 µM and 4.2 µM; TGI [35]: 32 µM and 232 µM; GI50 [36]: 3.18 µM and 6.88 µM; TGI [36]: 12.6 µM and 30.3 µM; GI50 [37]: 8.82 µM and 8.93 µM; TGI [37]: 564 µM; GI50 [38]: 1.8 µM and 1.04 µM; TGI [38]: 25.1 µM and 63.9 µM; GI50 [39]: 23.4 µM and 14.4 µM; TGI [39]: 65.7 µM and 35.1 µM; GI50 [40]: 12.1 µM; TGI [40]: 26 µM; GI50 [41]: 12.1 µM and 13.4 µM; TGI [41]: 30.2 µM and 36.4 µM; GI50 [42]: 20.7 µM and 10.5 µM; TGI [42]: 53.8 µM and 46 µM; GI50 [43]: 0.917 µM and 0.342 µM; TGI [43]: 17.3 µM and 8.2 µM; GI50 [44]: 14.3 µM and 19.8 µM; TGI [44]: 45 µM; GI50 [45]: 22.1 µM and 14.9 µM; TGI [45]: 83.5 µM and 36.3 µM; GI50 [46]: 19.6 µM; TGI [46]: 312 µM; GI50 [47]: 16.9 µM; TGI [47]: 33.1 µM; GI50 [48]: 4.78 µM and 3.71 µM; TGI [48]: 23.3 µM and 21.8 µM; GI50 [49]: 14.6 µM and 7.62 µM; TGI [49]: 70 µM and 58.1 µM; GI50 [50]: 5.04 µM and 27.6 µM; TGI [50]: 19.3 µM and 65.9 µM; GI50 [51]: 14.1 µM; TGI [51]: 250 µM; GI50 [52]: 14.6 µM and 11.7 µM; TGI [52]: 47.3 µM and 64.3 µM; GI50 [53]: 20.3 µM; TGI [53]: 54.2 µM; GI50 [54]: 14.4 µM and 10.1 µM; TGI [54]: 51.7 µM and 66.8 µM; GI50 [55]: 19.4 µM; TGI [55]: 102 µM; GI50 [56]: 5.99 µM and 9.89 µM; TGI [56]: 31.2 µM and 64.8 µM
